Earlier results as cited in US20200179539A1, “Contrast Agents and Methods of Making the Same for Spectral CT That Exhibit Cloaking and Auto-Segmentation” (BOARD OF REGENTS, THE UNIVERSITY OF TEXAS SYSTEM, priority 2017, published 2020).

Test system: rat
Conditions: rat oral

SMILES: [Na+].[Na+].[O]=[W](=[O])([O-])[O-] [sodium tungstate]
- LD50: 1,190 mg/Kg
